From patent publication US9994617B2, “Modulation of structured polypeptide specificity” (BICYCLE THERAPEUTICS LIMITED, priority 2011, dated 2018)
Numbered stars: 1 amine (or outer) side, 2 acyl side, 3 side chain; on linkers, the order of the positions; unused ones are H or OH. Bridge positions count the residues as written; N and C are the ends. Peptide text beside a SMILES is read from it. TBMB = c1c(C[*:1])cc(C[*:3])cc1C[*:2]

Tests used:
[1] = target: human plasma kallikrein (hPK) (Homo sapiens, UniProt P03952); experiment: Enzyme inhibition assay, human plasma kallikrein
Chain of human plasma kallikrein (hPK) (P03952 20-638): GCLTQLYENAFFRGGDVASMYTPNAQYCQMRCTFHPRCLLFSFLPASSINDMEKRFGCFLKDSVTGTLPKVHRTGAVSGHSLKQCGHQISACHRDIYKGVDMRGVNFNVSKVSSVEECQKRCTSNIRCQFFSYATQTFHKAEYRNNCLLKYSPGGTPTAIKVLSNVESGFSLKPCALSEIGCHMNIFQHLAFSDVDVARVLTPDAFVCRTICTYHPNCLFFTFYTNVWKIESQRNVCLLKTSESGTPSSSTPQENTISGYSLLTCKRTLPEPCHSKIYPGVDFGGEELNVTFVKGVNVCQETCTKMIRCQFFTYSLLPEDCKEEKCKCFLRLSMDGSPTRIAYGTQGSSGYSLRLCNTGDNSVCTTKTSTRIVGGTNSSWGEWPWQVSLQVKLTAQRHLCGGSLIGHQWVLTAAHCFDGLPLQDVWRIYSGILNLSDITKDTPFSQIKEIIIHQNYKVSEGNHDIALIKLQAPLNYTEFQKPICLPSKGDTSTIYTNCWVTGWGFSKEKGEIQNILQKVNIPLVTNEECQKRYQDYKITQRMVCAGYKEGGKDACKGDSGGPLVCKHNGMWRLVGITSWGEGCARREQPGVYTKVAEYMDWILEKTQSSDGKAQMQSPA

Human thrombin = Human thrombin (Homo sapiens, UniProt P00734); experiment: Inhibition of paralogous protease thrombin; assay type: biochemical
Procedure: (§1) The target specificity of the isolated bicyclic peptide inhibitors was assessed by determining the inhibition of trypsin-like human serine proteases of the class S1A which comprises 79 members (Yousef, et al, Biochem Biophys Res Commun 2003, 305 (1), 28-36). The panel of proteases included hfXIa which shares the highest sequence identity with hPK (69%) as well as the structurally less related but vital human serine proteases thrombin (36%), plasmin (34% sequence identity with hPK) and factor XIIa (35%).

[2] = target: T1, Human factor XIIa (hfXIIa) (Homo sapiens, UniProt P00748); experiment: Inhibition of paralogous protease factor XIIa; assay type: biochemical
T1 sequence (P00748 373-615 limits assumed): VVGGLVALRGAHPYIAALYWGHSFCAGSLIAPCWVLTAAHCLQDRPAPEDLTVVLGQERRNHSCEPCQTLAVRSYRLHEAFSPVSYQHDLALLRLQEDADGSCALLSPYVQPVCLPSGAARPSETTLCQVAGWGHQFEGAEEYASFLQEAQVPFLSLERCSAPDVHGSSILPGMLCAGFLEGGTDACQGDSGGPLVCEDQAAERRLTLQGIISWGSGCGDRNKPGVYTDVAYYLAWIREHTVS
Procedure: as §1

Compound	Ki [1] [nM]	IC50 (Human thrombin) [nM]	IC50 [2] [nM]
CC(C)C[C@@H]1NC(=O)[C@@H]2CSCc3cc(cc(c3)CSC[C@@H](C(=O)N[C@@H](C)C(N)=O)NC(=O)[C@@H]3CCCN3C(=O)[C@H](CCCNC(=N)N)NC(=O)[C@H](CCCNC(=N)N)NC(=O)[C@H](Cc3ccccc3)NC1=O)CSC[C@H](NC(=O)[C@H](C)N)C(=O)N[C@@H](C)C(=O)N[C@@H](CC(=O)O)C(=O)N1CCC[C@H]1C(=O)N[C@@H](Cc1c[nH]c3ccccc13)C(=O)N[C@@H](C)C(=O)N2 [06-63 T] (H-ACADPWACLFRRPCA-NH2; linker 2-8-14 via TBMB)	1280	> 10000	> 10000
CSCC[C@@H]1NC(=O)[C@H](CCC(=O)O)NC(=O)[C@H](CCC(N)=O)NC(=O)[C@H](Cc2c[nH]cn2)NC(=O)[C@H]([C@@H](C)O)NC(=O)[C@@H]2CSCc3cc(cc(c3)CSC[C@@H](C(=O)N[C@@H](C)C(N)=O)NC1=O)CSC[C@H](NC(=O)[C@H](C)N)C(=O)NCC(=O)N[C@@H](C(C)C)C(=O)N1CCC[C@H]1C(=O)N[C@@H](Cc1ccc(O)cc1)C(=O)N[C@@H](CCCNC(=N)N)C(=O)N2 [06-64 T] (H-ACGVPYRCTHQEMCA-NH2; linker 2-8-14 via TBMB)	6.9	> 10000	> 10000
CSCC[C@@H]1NC(=O)[C@H]([C@@H](C)O)NC(=O)[C@@H]2CSCc3cc(cc(c3)CSC[C@@H](C(=O)N[C@@H](C)C(N)=O)NC(=O)[C@H](Cc3c[nH]c4ccccc34)NC(=O)[C@H](CC(N)=O)NC(=O)[C@H](CCC(N)=O)NC1=O)CSC[C@H](NC(=O)[C@H](C)N)C(=O)N[C@@H]([C@@H](C)O)C(=O)N[C@@H](Cc1c[nH]c3ccccc13)C(=O)N1CCC[C@H]1C(=O)N[C@@H](C)C(=O)N[C@@H](CCCNC(=N)N)C(=O)N2 [06-A2*] (H-ACTWPARCTMQNWCA-NH2; linker 2-8-14 via TBMB)	181		> 10000
CC(=O)N[C@H]1CSCc2cc3cc(c2)CSC[C@H](NC(=O)[C@@H]2CCCN2C(=O)[C@H](CO)NC(=O)[C@H](CCCNC(=N)N)NC(=O)[C@H](C)NC(=O)[C@H](Cc2c[nH]c4ccccc24)NC1=O)C(=O)N[C@@H](CC(C)C)C(=O)N[C@@H](Cc1c[nH]cn1)C(=O)N[C@@H](CCC(N)=O)C(=O)N[C@@H](CC(=O)O)C(=O)N[C@@H](CC(C)C)C(=O)N[C@H](C(N)=O)CSC3 [Ac-(06-34-18) Scram4] (Ac-CWARSPCLHQDLC-NH2; linker 1-7-13 via TBMB)	67500		
CC(=O)N[C@H]1CSCc2cc3cc(c2)CSC[C@H](NC(=O)[C@H](C)NC(=O)[C@@H]2CCCN2C(=O)[C@H](Cc2c[nH]c4ccccc24)NC(=O)[C@H](CO)NC1=O)C(=O)N[C@@H](CC(C)C)C(=O)N[C@@H](Cc1c[nH]cn1)C(=O)N[C@@H](CCC(N)=O)C(=O)N[C@@H](CC(=O)O)C(=O)N[C@@H](CC(C)C)C(=O)N[C@H](C(N)=O)CSC3 [Ac-(06-34-18) Δ Arg5] (Ac-CSWPACLHQDLC-NH2; linker 1-6-12 via TBMB)	> 100000		
CC(=O)N[C@H]1CSCc2cc3cc(c2)CSC[C@H](NC(=O)C[C@H](CCCNC(=N)N)NC(=O)[C@H](C)NC(=O)[C@@H]2CCCN2C(=O)[C@H](Cc2c[nH]c4ccccc24)NC(=O)[C@H](CO)NC1=O)C(=O)N[C@@H](CC(C)C)C(=O)N[C@@H](Cc1c[nH]cn1)C(=O)N[C@@H](CCC(N)=O)C(=O)N[C@@H](CC(=O)O)C(=O)N[C@@H](CC(C)C)C(=O)N[C@H](C(N)=O)CSC3 [Ac-(06-34-18) βhomoArg5]	8.2		
CC(C)C[C@@H]1NC(=O)[C@H](CCC(=O)O)NC(=O)[C@H](CCCNC(=N)N)NC(=O)[C@H]([C@@H](C)O)NC(=O)[C@H](CC(C)C)NC(=O)[C@@H]2CSCc3cc(cc(c3)CSC[C@@H](C(=O)N[C@@H](C)C(N)=O)NC1=O)CSC[C@H](NC(=O)[C@H](C)N)C(=O)N[C@@H](C)C(=O)N[C@@H](Cc1c[nH]c3ccccc13)C(=O)N1CCC[C@H]1C(=O)N[C@@H](C)C(=O)N[C@@H](CCCCN)C(=O)N2 [Peptide 1B1] (H-ACAWPAKCLTRELCA-NH2; linker 2-8-14 via TBMB)	8.1		
C[C@H](N)C(=O)N[C@H]1CSCc2cc3cc(c2)CSC[C@H](NC(=O)[C@H](CC(N)=O)NC(=O)[C@H](CC(N)=O)NC(=O)[C@H](Cc2ccc(O)cc2)NC(=O)CNC(=O)CNC1=O)C(=O)N[C@@H](CCCNC(=N)N)C(=O)N[C@@H](C)C(=O)N[C@@H](Cc1ccccc1)C(=O)N[C@@H](CO)C(=O)N[C@@H](Cc1ccc(O)cc1)C(=O)N[C@H](C(=O)N[C@@H](C)C(N)=O)CSC3 [Peptide 1F7] (H-ACGGYNNCRAFSYCA-NH2; linker 2-8-14 via TBMB)	2.2		
CC(C)[C@@H]1NC(=O)[C@H](CCCNC(=N)N)NC(=O)[C@@H]2CSCc3cc(cc(c3)CSC[C@@H](C(=O)N[C@@H](C)C(N)=O)NC(=O)[C@H](C)NC1=O)CSC[C@H](NC(=O)[C@H](C)N)C(=O)N[C@@H](Cc1ccccc1)C(=O)N1CCC[C@H]1C(=O)N[C@@H](CCCCN)C(=O)N2 [Peptide 3A3] (H-ACFPKCRVACA-NH2; linker 2-6-10 via TBMB)	43.1		
CC(C)[C@@H]1NC(=O)[C@H](CCCNC(=N)N)NC(=O)[C@@H]2CSCc3cc(cc(c3)CSC[C@@H](C(=O)N[C@@H](C)C(N)=O)NC(=O)[C@H](CC(N)=O)NC1=O)CSC[C@H](NC(=O)[C@H](C)N)C(=O)N[C@@H](Cc1ccccc1)C(=O)N[C@@H](CCCCN)C(=O)N[C@@H](CC(N)=O)C(=O)N2 [Peptide 3B2] (H-ACFKNCRVNCA-NH2; linker 2-6-10 via TBMB)	9		
CC(C)[C@@H]1NC(=O)[C@H](CCCNC(=N)N)NC(=O)[C@@H]2CSCc3cc(cc(c3)CSC[C@@H](C(=O)N[C@@H](C)C(N)=O)NC(=O)[C@H](C)NC1=O)CSC[C@H](NC(=O)[C@H](C)N)C(=O)N[C@@H](Cc1ccccc1)C(=O)N[C@@H](CCCCN)C(=O)N[C@@H](Cc1c[nH]cn1)C(=O)N2 [Peptide 3B8] (H-ACFKHCRVACA-NH2; linker 2-6-10 via TBMB)	0.95	> 10000	
CC[C@H](C)[C@@H]1NC(=O)[C@H](C(C)C)NC(=O)[C@H](CCCNC(=N)N)NC(=O)[C@@H]2CSCc3cc(cc(c3)CSC[C@@H](C(=O)N[C@@H](C)C(N)=O)NC1=O)CSC[C@H](NC(=O)[C@H](C)N)C(=O)N[C@@H](Cc1ccccc1)C(=O)N[C@@H](CC(=O)O)C(=O)N1CCC[C@H]1C(=O)N2 [Peptide 3B9] (H-ACFDPCRVICA-NH2; linker 2-6-10 via TBMB)	90.8		
C[C@H](N)C(=O)N[C@H]1CSCc2cc3cc(c2)CSC[C@H](NC(=O)[C@H](CCCNC(=N)N)NC(=O)[C@H](C)NC(=O)[C@@H]2CCCN2C(=O)[C@H](Cc2c[nH]c4ccccc24)NC(=O)[C@H]([C@@H](C)O)NC1=O)C(=O)N[C@@H]([C@@H](C)O)C(=O)N[C@@H](Cc1c[nH]cn1)C(=O)N[C@@H](CCC(N)=O)C(=O)N[C@@H](CC(N)=O)C(=O)N[C@@H](Cc1c[nH]c2ccccc12)C(=O)N[C@H](C(=O)N[C@@H](C)C(N)=O)CSC3 [Peptide 06-09] (H-ACTWPARCTHQNWCA-NH2; linker 2-8-14 via TBMB)	1.2	> 10000	> 10000
CC(C)C[C@@H]1NC(=O)[C@H](CC(=O)O)NC(=O)[C@H](CCC(N)=O)NC(=O)[C@H](Cc2c[nH]cn2)NC(=O)[C@H](CC(N)=O)NC(=O)[C@@H]2CSCc3cc(cc(c3)CSC[C@@H](C(=O)N[C@@H](C)C(N)=O)NC1=O)CSC[C@H](NC(=O)[C@H](C)N)C(=O)N[C@@H](CO)C(=O)N[C@@H](Cc1c[nH]c3ccccc13)C(=O)N1CCC[C@H]1C(=O)N[C@@H](C)C(=O)N[C@@H](CCCNC(=N)N)C(=O)N2 [Peptide 06-57] (H-ACSWPARCNHQDLCA-NH2; linker 2-8-14 via TBMB)	0.4	> 10000	> 10000
CC(C)C[C@@H]1NC(=O)[C@H](CO)NC(=O)[C@H]([C@@H](C)O)NC(=O)[C@H]([C@@H](C)O)NC(=O)[C@H](CC(C)C)NC(=O)[C@@H]2CSCc3cc(cc(c3)CSC[C@@H](C(=O)N[C@@H](C)C(N)=O)NC1=O)CSC[C@H](NC(=O)[C@H](C)N)C(=O)N[C@@H](CCCNC(=N)N)C(=O)N[C@@H](Cc1c[nH]c3ccccc13)C(=O)N1CCC[C@H]1C(=O)N[C@@H](C)C(=O)N[C@@H](CCCNC(=N)N)C(=O)N2 [Peptide 06-59] (H-ACRWPARCLTTSLCA-NH2; linker 2-8-14 via TBMB)	0.5	> 10000	> 10000
CC(C)[C@@H]1NC(=O)[C@H](CCCNC(=N)N)NC(=O)[C@@H]2CSCc3cc(cc(c3)CSC[C@@H](C(=O)N[C@@H](C)C(N)=O)NC(=O)[C@H](CC(N)=O)NC1=O)CSC[C@H](NC(=O)[C@H](C)N)C(=O)N[C@@H](Cc1ccccc1)C(=O)N[C@@H](CC(N)=O)C(=O)N[C@@H](CCCCN)C(=O)N2 [Peptide 06-64] (H-ACFNKCRVNCA-NH2; linker 2-6-10 via TBMB)	4.8		
CC(C)[C@@H]1NC(=O)[C@H](CCCNC(=N)N)NC(=O)[C@@H]2CSCc3cc(cc(c3)CSC[C@@H](C(=O)N[C@@H](C)C(N)=O)NC(=O)[C@H](CC(N)=O)NC1=O)CSC[C@H](NC(=O)[C@H](C)N)C(=O)N[C@@H](Cc1ccccc1)C(=O)N[C@@H](Cc1ccc(O)cc1)C(=O)N[C@@H](CCCCN)C(=O)N2 [Peptide 06-71] (H-ACFYKCRVNCA-NH2; linker 2-6-10 via TBMB)	15.2		
CC(C)[C@@H]1NC(=O)[C@H](CCCNC(=N)N)NC(=O)[C@@H]2CSCc3cc(cc(c3)CSC[C@@H](C(=O)N[C@@H](C)C(N)=O)NC(=O)[C@H](CC(N)=O)NC1=O)CSC[C@H](NC(=O)[C@H](C)N)C(=O)N[C@@H](Cc1ccccc1)C(=O)N[C@@H](CCCCN)C(=O)N[C@@H](CCC(N)=O)C(=O)N2 [Peptide 06-94] (H-ACFKQCRVNCA-NH2; linker 2-6-10 via TBMB)	0.7	> 10000	
